Data published in patent US10150774B2, “Compounds and methods” (INTRA-CELLULAR THERAPIES, INC., priority 2014, dated 2018).

system: PDE1; test: Measurement of PDEIB inhibition in vitro using IMAP phosphodiesterase assay kit; assay type: biochemical, bovine or human
Source text: Example 10: Measurement of PDEIB Inhibition in Vitro Using IMAP Phosphodiesterase Assay Kit
Phosphodiesterase I B (PDEIB) is a calcium/calmodulin dependent phosphodiesterase enzyme that converts cyclic guanosine monophosphate (cGMP) to 5′-guanosine monophosphate (5′-GMP). PDEIB can also convert a modified cGMP substrate, such as the fluorescent molecule cGMP-fluorescein, to the corresponding GMP-fluorescein. The generation of GMP-fluorescein from cGMP-fluorescein can be quantitated, using, for example, the IMAP (Molecular Devices, Sunnyvale, Calif.) immobilized-metal affinity particle reagent.
Briefly, the IMAP reagent binds with high affinity to the free 5′-phosphate that is found in GMP-fluorescein and not in cGMP-fluorescein. The resulting GMP-fluorescein-IMAP complex is large relative to cGMP-5 fluorescein. Small fluorophores that are bound up in a large, slowly tumbling, complex can be distinguished from unbound fluorophores, because the photons emitted as they fluoresce retain the same polarity as the photons used to excite the fluorescence.
In the phosphodiesterase assay, cGMP-fluorescein, which cannot be bound to IMAP, and therefore retains little fluorescence polarization, is converted to GMPfluorescein, which, when bound to IMAP, yields a large increase in fluorescence polarization (mp). Inhibition of phosphodiesterase, therefore, is detected as a decrease in mp.
Materials: All chemicals are available from Sigma-Aldrich (St. Louis, Mo.) except for IMAP reagents (reaction buffer, binding buffer, FL-GMP and IMAP beads), which are available from Molecular Devices (Sunnyvale, Calif.).
Assay: The following phosphodiesterase enzymes may be used: 3′,5′-cyclic-nucleotide specific bovine brain phosphodiesterase (Sigma, St. Louis, Mo.) (predominantly PDEIB) and recombinant full length human PDE1 A and PDE1B (r-hPDE1 A and r-hPDE1B respectively) which may be produced e.g., in HEK or SF9 cells by one skilled in the art. The PDE1 enzyme is reconstituted with 50% glycerol to 2.5 U/mL. One unit of enzyme will hydrolyze 1.0 μmol of 3′,5′-cAMP to 5′-AMP per min at pH 7.5 at 30° C. […]
The FL-GMP conversion reaction is initiated by combining 4 parts enzyme and inhibitor mix with 1 part substrate solution ([…]) in a 384-well microtiter plate. […] The plate is incubated at room temperature for 1 hour to allow IMAP binding to proceed to completion, and then placed in an Envision multimode microplate reader (PerkinElmer, Shelton, Conn.) to measure the fluorescence polarization (mp).
A decrease in GMP concentration, measured as decreased mp, is indicative of inhibition of PDE activity.

Selectivity for PDE1, good selectivity:
CCc1c2c(nn1Cc1ccc(-c3ccc(F)cn3)cc1)N1CC(C)(C)N=C1N(C)C2=O [Example 5, 7,8-Dihydro-2-(4-(5-fluoropyridin2-yl)benzyl)-3-ethyl-5,7,7-trimethyl-[2H]-imidazo-[1,2-a]pyrazolo[4,3-e]pyrimidin-4(5H)-one]
CN1C(=O)c2c(nn(Cc3ccc(-c4ccccn4)cc3)c2Nc2ccc(F)cc2)N2CC(C)(C)N=C12 [Example 1, 7,8-Dihydro-2-(4-(pyridine-2-yl)benzyl)-3-(4-fluorophenylamino)-5,7,7-trimethyl-[2H]-imidazo-[1,2-a]pyrazolo[4,3-e]pyrimidin-4(5H)-one]
CN1C(=O)c2c(nn(Cc3ccc(Cl)cc3)c2Nc2ccc(F)cc2)N2CC(C)(C)N=C12 [Example 9, 7,8-Dihydro-2-(4-chlorobenzyl)-3-(4-fluorophenylamino)-5,7,7-trimethyl-[2H]-imidazo-[1,2-a]pyrazolo[4,3-e]pyrimidin-4(5H)-one]
CCCc1c2c(nn1Cc1ccc(-c3ccc(F)cn3)cc1)N1CC(C)(C)N=C1N(C)C2=O [Example 7, 7,8-Dihydro-2-(4-(5-fluoropyridin2-yl)benzyl)-3-propyl-5,7,7-trimethyl-[2H]-imidazo-[1,2-a]pyrazolo[4,3-e]pyrimidin-4(5H)-one]
